SMILES strings stand for the structures. ± gives the expanded uncertainty stated by the source.

This passage reports electrical conductivity results from the NIST ThermoML archive (doi:10.1016/j.jct.2015.11.017).

This data set is described as follows: mn = molality of the nth substance listed, in mol/kg. The conditions noted are these: 298.2 K, 101.3 kPa, Liquid, Alternating current cell with electrodes.

As for `CCCCCCCCCCCCOS(=O)(=O)[O-].[Na+]` [sodium dodecyl sulfate] + O, the electrical conductivity (m1 = 0.01003) turned out to be 0.0586 ± 0.001 S/m; the electrical conductivity (m1 = 0.01504) was 0.0684 ± 0.001 S/m; the electrical conductivity (m1 = 0.02006) was 0.0816 ± 0.001 S/m; the electrical conductivity (m1 = 0.02507) came out at 0.097 ± 0.01 S/m; the electrical conductivity (m1 = 0.03009) was found to be 0.106 ± 0.01 S/m.
